Reference: EP3939596A1, “A COMPOSITION FOR TREATING HELMINTH INFESTATION IN A MAMMAL” (Bimeda Animal Health Limited, priority 2020, dated 2022)

Tests used:
adult fluke = assay: In-vivo efficacy study: fluke counts at post mortem in infected sheep after oral treatment, compared with untreated control sheep; settings: 50 mg/kg
Procedure: Four sheep infected with adult fluke were treated with an IVL-11 oral solution formulation of Table 1: Table 1
The solution was orally administered to the sheep to provide a dosage of α-hederin of 50 mg/kg and then worm counts compared to counts in untreated control sheep. Table 2: summary of efficacy following treatment of four sheep with IVL-11 orally at 50mg/kg compared with fluke counts in untreated control sheep

[1] = Plasma/blood level after oral administration; assay type: in vivo; settings: treated sheep
Text: The Applicant has addressed the problems of the prior art by identifying a natural compound present in ivy (Hedera) that is effective at treating helminth infestations in a mammal. The natural compound is α-hederin, a water soluble pentacyclic triterpenoid saponin. The compound is quite a large molecule and would not be anticipated to be absorbed from the rumen following oral administration, but would be expected to be absorbed from the small intestine. […] This is highly surprising given the low plasma levels of α-hederin in treated sheep.
IVL-11 is a relatively large particle and so would not be anticipated to be absorbed from the rumen following oral administration. Instead, absorption from the small intestine would be predicted.

[2] = Solubility of α-hederin in 1,2-propanediol; assay type: physicochemical
[3] = Stability of α-hederin solutions on storage (visual); assay type: physicochemical; settings: for stability of solution: 10 wt.% α-hederin in 85.5 wt.% 1,2-Propanediol and 4.5 wt.% Benzyl alcohol

For α-hederin [IVL-11], which “Arithmetic mean number of fluke at post mortem” value (adult fluke; oral solution, 4 sheep) is on record?
The value was 83.

What about the “% efficacy (reduction in average fluke numbers compared to the control sheep)” value (adult fluke; oral, vs untreated control sheep) of the same substance?
Its value is 21.6%.

What about the “plasma / blood levels following administration in vivo” value [1] of the same substance?
The value was “low”.

And the “solubility in 1,2-propanediol” value ([2]; 5% α-hederin in 1,2-propanediol)?
The value was “soluble”.

What about the “solubility in 1,2-propanediol” value ([2]; 10% α-hederin in 1,2-propanediol) of the same substance?
Its value is “soluble”.

What about the “stability (appearance) of solution in 1,2-propanediol” value (shortened to “stability (appearance) of solution”) ([3]; 5 % solution, 13 days at room temperature) of the same substance?
The value was “cloudy at the top”.

What about the “stability (appearance) of solution” value ([3]; 10 % solution, 13 days at room temperature) of the same substance?
Its value is “became cloudy”.

What about the stability of solution ([3]; 6 months at 5°C) of the same substance?
The stability of solution was “stable”.

What about the stability of solution ([3]; 6 months at room temperature) of the same substance?
The stability of solution was “stable”.

And the “stability (appearance) of solution” value ([3]; 35°C, over 3 weeks)?
The value was “no visible changes”.
